Experimental data taken from US20050026836A1, “Composition for the treatment of damaged tissue” (priority 1999, published 2005).

Molecular target: T1, MMP-3 (Homo sapiens, UniProt P08254)
T1 construct: made in house
Assay: Reduction of MMP-3-catalysed degradation of KGF-2
Assay type: biochemical
Details: MMP-3 / KGF-2, read-out: Percentage inhibition of proteolysis

T1 sequence (P08254 100-272 limits assumed): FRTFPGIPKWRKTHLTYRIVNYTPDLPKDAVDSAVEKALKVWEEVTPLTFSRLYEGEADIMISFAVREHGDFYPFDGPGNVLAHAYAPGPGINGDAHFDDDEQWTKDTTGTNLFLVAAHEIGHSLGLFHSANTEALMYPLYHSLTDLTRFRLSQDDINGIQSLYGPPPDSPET

COC[C@@H](NC(=O)[C@@H](NC(=O)[C@H](CCCc1ccc(-c2cccc(OC)c2)c(C)c1)CC(=O)O)C(C)(C)C)c1ccccc1 [compound 9454, (3R)-3-({[(1S)-2,2-Dimethyl-1-({[(1S)-2-methoxy-1-phenylethyl]amino}carbonyl)propyl]amino}carbonyl)-6-(3′-methoxy-2-methylbiphen-4-yl)hexanoic acid]
inhibition at 0.1 µM (inhibitor 0.1 μM): 45%
inhibition at 1 µM (inhibitor 1 μM): 30%
inhibition at 10 µM (inhibitor 10 μM): 62%
inhibition at 100 µM (inhibitor 100 μM): 68%
